# Values joined by “and” are separate entries in the source; they are usually repeats but may differ in a detail not shown here. Equal values may be shown once. “Also recorded” adds a separate entry of the source. Read-outs that look alike come from different tables or passages of the source.
# Legend:
# dopamine transporters [1] = conditions: cited from earlier work; for Time for reaching optimal uptake ratio / equilibrium: basal ganglia versus frontal cortex; for Literature binding / localization / biodistribution, in words: in vivo
# [2] = format: in vivo, Male Sprague-Dawley rats; conditions: rats, iv
# Description: Male Sprague-Dawley rats (225-300 g) allowed free access to food and water were used for in vivo biodistribution studies. Kung, 1984, supra; Kung, 1985, supra. While under ether anesthesia, 0.2 mL of a saline solution containing 1.19a, 1.19b, 1.20a, 1.20b or 1.21 (50-100 μCi) was injected directly into the femoral vein of rats, and the rats were sacrificed by cardiac excision at various time points post-injection. The organs of interest were removed and weighed, and the radioactivity was counted with an automatic gamma counter (Packard 5000). The percentage dose per organ was calculated by a comparison of the tissue counts to suitably diluted aliquots of the injected material. Total activities of blood and muscle were calculated under the assumption that they were 7% and 40% of the total body weight, respectively.
# (§1) The major criteria for determining the potential usefulness of in vivo dopamine transporter imaging agents are based on an animal biodistribution study. In this case, rats were used as an animal model. After an intravenous injection of the Tc-99m labeled compounds, the values of initial brain uptake (% dose/whole organ) at 2 minutes post intravenous injection are used to measure the ability to penetrate the intact blood-brain barrier. Compounds displaying higher brain uptake are the better agents (minimum requirement >0.1% dose in brain). The second criteria is the specific uptake in the striatum region of the brain, where dopamine transporters are located. The uptake value (% dose/gram) of the striatum (ST) is divided by the background area, cerebellum (CB; essentially devoid of dopamine transporter); the ratio of ST/CB is an indicator for specific uptake (minimum requirement for ST/CB >1.5). Five structurally similar tropane derivatives were examined in this biological study. (Tables 1.1 to 1.4).
# Male Sprague-Dawley rats (225-300 g) that were allowed free access to food and water were used for in vivo biodistribution studies. (Kung, 1984, supra; Kung, 1985, supra). While under halothane anesthesia, 0.2 mL of a saline solution containing 3.24 to 3.34 ([…]) was injected directly into the femoral vein of rats, and they were sacrificed by cardiac excision at various time points post-injection. The organs of interest were removed and weighed, and the radioactivity was counted with an automatic gamma counter (Packard 5000). The percentage dose per organ was calculated by a comparison of the tissue counts to suitably diluted aliquots of the injected material. Total activities of blood and muscle were calculated under the assumption that they were 7% and 40% of the total body weight, respectively.
# dopamine transporters [3] = target: dopamine transporters (Rattus norvegicus, UniProt P23977); format: in vivo, Male Sprague-Dawley rats; conditions: rats, iv
# Description: For dopamine transporter imaging agents, the target area of the brain is the striatum, where dopamine transporters are highly concentrated. The cerebellum region is suitable for use as the background region, because it has no dopamine transporters. The specific uptake is measured by the ratio of % dose/gram of striatum divided by % dose/gram of cerebellum (ST/CB ratio)--the higher the value, the better the specific uptake, and the more promising as a dopamine transporter imaging agent.
# (§2) Regional brain distribution in rats was obtained after an injection of 1.19a, 1.19b, 1.20a, 1.20b or 1.21. Samples from different brain regions (cortex, striatum, hippocampus, and cerebellum) were dissected, weighed and counted, and the percentage dose per gram of sample was calculated by comparing the sample counts with the count of the diluted initial dose. The uptake ratio of each region was obtained by dividing the percentage dose per gram of that region by that of the cerebellum. For blocking studies, rats were injected with either β-CIT or haloperidol (iv, 1 mg/Kg) 5 min prior to injection of 1.19a. The rats were dissected and brain tissue samples were counted as described above. The specific uptake of the compound was expressed as ratio of ST/CB (% dose/g of striatum divided by the same of cerebellum).
# as §1
# as §2, with “3.24 to 3.34.” for “1.19a, 1.19b, 1.20a, 1.20b or 1.21.”, “3.25.” for “1.19a.”, “above.” for “above. The specific uptake of the compound was expressed as ratio of ST/CB (% dose/g of striatum divided by the same of cerebellum).”
# dopamine transporter = assay: Blocking studies in rats (pretreatment or co-injection with competing agent); format: in vivo, Male Sprague-Dawley rats; conditions: 1 mg/kg iv, 5 min before tracer, rats
# Description: as §2
# as §2, with “3.24 to 3.34.” for “1.19a, 1.19b, 1.20a, 1.20b or 1.21.”, “3.25.” for “1.19a.”, “above.” for “above. The specific uptake of the compound was expressed as ratio of ST/CB (% dose/g of striatum divided by the same of cerebellum).”
# dopamine transporters (Rattus norvegicus, UniProt P23977), sequence (P23977 whole entry): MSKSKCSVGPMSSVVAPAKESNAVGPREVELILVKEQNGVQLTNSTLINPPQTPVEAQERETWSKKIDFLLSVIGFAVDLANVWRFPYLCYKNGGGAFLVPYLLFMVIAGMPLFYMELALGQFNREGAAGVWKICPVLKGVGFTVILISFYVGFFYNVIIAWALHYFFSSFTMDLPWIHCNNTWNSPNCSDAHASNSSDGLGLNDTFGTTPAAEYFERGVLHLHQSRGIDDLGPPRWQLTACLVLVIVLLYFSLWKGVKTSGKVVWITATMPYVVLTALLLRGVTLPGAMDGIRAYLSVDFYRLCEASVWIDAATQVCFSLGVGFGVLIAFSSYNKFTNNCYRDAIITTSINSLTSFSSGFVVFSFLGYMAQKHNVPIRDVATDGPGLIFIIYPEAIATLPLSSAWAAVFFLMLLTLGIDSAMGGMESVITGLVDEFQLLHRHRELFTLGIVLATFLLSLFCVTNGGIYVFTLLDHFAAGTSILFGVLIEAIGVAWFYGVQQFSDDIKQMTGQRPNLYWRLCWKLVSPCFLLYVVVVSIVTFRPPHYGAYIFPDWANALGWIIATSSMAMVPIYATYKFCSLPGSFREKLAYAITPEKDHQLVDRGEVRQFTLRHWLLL
structure (smiles),measurement,setting,value
COC(=O)[C@H]1[C@@H](c2ccc([123I])cc2)C[C@@H]2CC[C@H]1N2CCCF [[^123 I]-β-CIT-FP],Time for reaching optimal uptake ratio / equilibrium,dopamine transporters [1],less than one hour
"COC(=O)[C@H]1[C@@H](c2ccc(Cl)cc2)C[C@@H]2CC[C@H]1N2CCC[N+]12CC[S][99Tc-]13(=[O])[S]CC[N]3CC2 (single isomer, unassigned; peak a) [peak A of (2.6a)]","Blood uptake, 2 min",[2],2.41 ± 0.33 % dose/organ
same,"Brain uptake, 2 min",[2],0.25 ± 0.04 % dose/organ
same,"Heart uptake, 2 min",[2],0.79 ± 0.03 % dose/organ
same,"Kidney uptake, 2 min",[2],2.97 ± 0.09 % dose/organ
same,"Liver uptake, 2 min",[2],14.29 ± 2.56 % dose/organ
same,"Lung uptake, 2 min",[2],15.63 ± 2.31 % dose/organ
same,"Muscle uptake, 2 min",[2],7.78 ± 0.32 % dose/organ
same,"Skin uptake, 2 min",[2],1.59 ± 0.68 % dose/organ
same,"Spleen uptake, 2 min",[2],0.42 ± 0.10 % dose/organ
same,"Blood uptake, 30 min",[2],1.16 ± 0.06 % dose/organ
same,"Brain uptake, 30 min",[2],0.13 ± 0.02 % dose/organ
same,"Heart uptake, 30 min",[2],0.22 ± 0.02 % dose/organ
same,"Kidney uptake, 30 min",[2],1.25 ± 0.11 % dose/organ
same,"Liver uptake, 30 min",[2],20.87 ± 2.23 % dose/organ
same,"Lung uptake, 30 min",[2],9.65 ± 1.37 % dose/organ
same,"Muscle uptake, 30 min",[2],10.41 ± 1.26 % dose/organ
same,"Skin uptake, 30 min",[2],5.69 ± 0.73 % dose/organ
same,"Spleen uptake, 30 min",[2],0.42 ± 0.05 % dose/organ
COC(=O)C1C(c2ccc(Cl)cc2)CC2CCC1N2CCC[N+]12CC[S][99Tc-]13(=[O])[S]CC[N]3CC2 (mixture of isomers) [Compound 2.6a],"Brain uptake, 2 min",[2],0.27 ± 0.02 % dose/organ
same,"Brain uptake, 30 min",[2],0.11 ± 0.02 % dose/organ
same,"Brain uptake and specific striatal uptake, in words",dopamine transporters [3],displayed a significant brain uptake and specific uptake to the striatum area of the rat brain
"CN1[C@H]2CC[C@@H]1[C@@H](C[N+]13CC[S][99Tc-]14(=[O])[S]CC[N]4CC3)[C@@H](c1ccc(Cl)cc1)C2 (single isomer, unassigned; peak a) [Peak A (1.19a)]","Blood uptake, 2 min",[2],1.98 ± 0.19 % dose/organ
same,"Brain uptake, 2 min",[2],0.5 % dose/organ and 0.50 ± 0.06 % dose/organ
same,"Heart uptake, 2 min",[2],1.76 ± 0.09 % dose/organ
same,"Kidney uptake, 2 min",[2],5.47 ± 1.04 % dose/organ
same,"Liver uptake, 2 min",[2],9.55 ± 2.19 % dose/organ
same,"Lung uptake, 2 min",[2],9.68 ± 0.51 % dose/organ
same,"Muscle uptake, 2 min",[2],33.61 ± 4.31 % dose/organ
same,"Skin uptake, 2 min",[2],2.73 ± 0.39 % dose/organ
same,"Spleen uptake, 2 min",[2],0.27 ± 0.04 % dose/organ
same,"Blood uptake, 60 min",[2],1.00 ± 0.15 % dose/organ
same,"Brain uptake, 60 min",[2],0.21 ± 0.01 % dose/organ
same,"Heart uptake, 60 min",[2],0.21 ± 0.00 % dose/organ
same,"Kidney uptake, 60 min",[2],2.04 ± 0.21 % dose/organ
same,"Liver uptake, 60 min",[2],17.75 ± 1.81 % dose/organ
same,"Lung uptake, 60 min",[2],3.06 ± 0.28 % dose/organ
same,"Muscle uptake, 60 min",[2],14.98 ± 0.49 % dose/organ
same,"Skin uptake, 60 min",[2],3.56 ± 0.65 % dose/organ
same,"Spleen uptake, 60 min",[2],0.46 ± 0.18 % dose/organ
same,"ST/CB ratio, 60 min",dopamine transporters [3],2.72
"CN1[C@H]2CC[C@@H]1[C@@H](C[N+]13CC[S][99Tc-]14(=[O])[S]CC[N]4CC3)[C@@H](c1ccc(Cl)cc1)C2 (single isomer, unassigned; peak b) [peak B (1.19a)]","Blood uptake, 2 min",[2],4.02 ± 0.20 % dose/organ
same,"Brain uptake, 2 min",[2],0.28 ± 0.01 % dose/organ
same,"Heart uptake, 2 min",[2],1.28 ± 0.15 % dose/organ
same,"Kidney uptake, 2 min",[2],4.47 ± 0.69 % dose/organ
same,"Liver uptake, 2 min",[2],9.07 ± 1.66 % dose/organ
same,"Lung uptake, 2 min",[2],6.00 ± 1.11 % dose/organ
same,"Muscle uptake, 2 min",[2],41.46 ± 11.33 % dose/organ
same,"Skin uptake, 2 min",[2],3.43 ± 0.62 % dose/organ
same,"Spleen uptake, 2 min",[2],0.27 ± 0.03 % dose/organ
same,"Brain uptake, 2 min",[2]; listed as Peak B,0.28 % dose/organ
same,"Blood uptake, 60 min",[2],1.89 ± 0.21 % dose/organ
same,"Brain uptake, 60 min",[2],0.12 ± 0.02 % dose/organ
same,"Heart uptake, 60 min",[2],0.19 ± 0.06 % dose/organ
same,"Kidney uptake, 60 min",[2],1.87 ± 0.80 % dose/organ
same,"Liver uptake, 60 min",[2],18.71 ± 2.54 % dose/organ
same,"Lung uptake, 60 min",[2],1.23 ± 0.89 % dose/organ
same,"Muscle uptake, 60 min",[2],8.60 ± 2.51 % dose/organ
same,"Skin uptake, 60 min",[2],4.11 ± 0.62 % dose/organ
same,"Spleen uptake, 60 min",[2],0.41 ± 0.24 % dose/organ
same,"ST/CB ratio, 60 min",dopamine transporters [3],3.79
"COC(=O)[C@H]1[C@@H](c2ccc(Cl)cc2)C[C@@H]2CC[C@H]1N2CCC[N+]12CC[S][99Tc-]13(=[O])[S]CC[N]3CC2 (single isomer, unassigned; peak b) [peak B of (2.6a)]","Blood uptake, 2 min",[2],3.96 ± 0.70 % dose/organ
same,"Brain uptake, 2 min",[2],0.19 ± 0.041 % dose/organ
same,"Heart uptake, 2 min",[2],0.70 ± 0.21 % dose/organ
same,"Kidney uptake, 2 min",[2],2.03 ± 0.45 % dose/organ
same,"Liver uptake, 2 min",[2],19.56 ± 3.21 % dose/organ
same,"Lung uptake, 2 min",[2],19.16 ± 2.06 % dose/organ
same,"Muscle uptake, 2 min",[2],9.92 ± 1.04 % dose/organ
same,"Skin uptake, 2 min",[2],1.25 ± 0.17 % dose/organ
same,"Spleen uptake, 2 min",[2],0.42 ± 0.10 % dose/organ
same,"Blood uptake, 30 min",[2],1.82 ± 0.43 % dose/organ
same,"Brain uptake, 30 min",[2],0.094 ± 0.026 % dose/organ
same,"Heart uptake, 30 min",[2],0.24 ± 0.08 % dose/organ
same,"Kidney uptake, 30 min",[2],1.24 ± 0.18 % dose/organ
same,"Liver uptake, 30 min",[2],28.57 ± 2.94 % dose/organ
same,"Lung uptake, 30 min",[2],12.51 ± 1.46 % dose/organ
same,"Muscle uptake, 30 min",[2],8.09 ± 1.686 % dose/organ
same,"Skin uptake, 30 min",[2],3.25 ± 0.76 % dose/organ
same,"Spleen uptake, 30 min",[2],0.67 ± 0.17 % dose/organ
COC(=O)C1C(c2ccc(F)cc2)CC2CCC1N2CCCN(CC[S-])CC([O-])=NCC[S-].[O]=[99Tc+3] (centres unmarked) [Technepine],"Literature binding / localization / biodistribution, in words",dopamine transporters [1],poor biodistribution
same,"Literature binding / localization / biodistribution, in words",dopamine transporters [1]; listed as technepine,less favorable biological properties
"O=C(CCCN1CCC(O)(c2ccc(Cl)cc2)CC1)c1ccc(F)cc1 [haloperidol, reference compound]",Effect of pretreatment on specific striatal uptake of tracer,dopamine transporter,no blocking effect was observed
CN1[C@H]2CC[C@@H]1[C@@H](C[N+]13CC[S][99Tc-]14(=[O])[S]CC[N]4CC3)[C@@H](c1ccc(Br)cc1)C2 (some centres unmarked) [Compound 1.20c],"Brain uptake, 2 min",[2],0.41 ± 0.03 % dose/organ
same,"Brain uptake, 60 min",[2],0.18 ± 0.01 % dose/organ
same,"Brain uptake and specific striatal uptake, in words",dopamine transporters [3],high initial uptake and high specific retention in brain
same,"ST/CB ratio, 60 min",dopamine transporters [3],2.82 and 2.82 ± 0.19
"COC(=O)[C@H]1[C@@H](c2ccc(F)cc2)C[C@@H]2CC[C@H]1N2C [CFT (WIN35,428)]","Literature binding / localization / biodistribution, in words",dopamine transporters [1],much higher binding affinity and selectivity to dopamine reuptake sites
"COC(=O)[C@H]1[C@@H](c2ccc(I)cc2)C[C@@H]2CC[C@H]1N2C [β-CIT, N-methyl-2b-carbomethoxy-3b-(4-iodophenyl)tropane, reference compound]",Time for reaching optimal uptake ratio / equilibrium,dopamine transporters [1],> 18 h
same,"Literature binding / localization / biodistribution, in words",dopamine transporters [1],much higher binding affinity and selectivity to dopamine reuptake sites
same,Effect of pretreatment on specific striatal uptake of tracer,dopamine transporter,could be blocked; also recorded: showed blocking of the specific uptake
same,Effect of pretreatment on specific striatal uptake of tracer,dopamine transporter; listed as RTI-55,could be blocked
COC(=O)[C@H]1[C@@H](OC(=O)c2ccccc2)C[C@@H]2CC[C@H]1N2C [cocaine],"Literature binding / localization / biodistribution, in words",dopamine transporters [1],largely concentrated in the basal ganglia

# From US6241963A, “Dopamine and serotonin transporter ligands and imaging agents” (priority 1996, dated 2001)
